Test results reported in BigSolDB 2.1.

CC(=O)c1cnccn1
solubility (mole fraction)
Conditions | 268.35 K | 273.15 K | 278.15 K | 283.21 K | 288.15 K | 293.05 K | 298.15 K | 303.15 K | 308.35 K
in DMF | 0.0822 | 0.0972 | 0.116 | 0.139 | 0.165 | 0.194 | 0.23 | 0.269 | 0.314
in NMP | 0.117 | 0.129 | 0.15 | 0.174 | 0.203 | 0.234 | 0.271 | 0.31 | 0.355
in acetone | 0.0511 | 0.0601 | 0.0727 | 0.0826 | 0.0977 | 0.119 | 0.137 | 0.153 | 0.174
in ethanol | 0.0073 | 0.0111 | 0.0136 | 0.0178 | 0.0231 | 0.0347 | 0.0433 | 0.0542 | 0.0727
in ethyl acetate | 0.0636 | 0.0746 | 0.0889 | 0.101 | 0.116 | 0.144 | 0.164 | 0.186 | 0.209
in isopropanol | 0.0052 | 0.0075 | 0.0106 | 0.0128 | 0.0195 | 0.0299 | 0.0382 | 0.0509 | 0.0698
in methanol | 0.013 | 0.0156 | 0.0179 | 0.0224 | 0.0281 | 0.0405 | 0.0485 | 0.0596 | 0.077
